Assays:
[1] = Vitamin C added to BCA: efficacy of BCA to increase cGP levels; details: added to BCA as ascorbic acid
[2] = test system: hypertensive rats; details: cited from earlier work
[3] = test system: rats with ischemic brain injury; details: cited from earlier work

| SMILES | effect on the efficacy of BCA to increase the levels of cGP [1] | systemic blood pressure [2] | ischemic brain injury [3] |
| --- | --- | --- | --- |
| O=C1O[C@H]([C@@H](O)CO)C(O)=C1O [Vitamin C, ascorbic acid] | negative effect | – | – |
| O=C1NCC(=O)N2CCC[C@@H]12 [cGP, cyclic glycine-proline] | – | normalises the systemic blood pressure | prevents ischemic brain injury |
